# Reference: a compilation of properties of binary mixtures (doi:10.1016/j.molliq.2017.12.017)
# Test: xn = mol fraction of the nth substance listed
# Conditions: 101 kPa
smiles,measurement,setting,value
CC[n+]1ccn(C)c1.O=S(=O)([O-])C(F)(F)F + COCCO,speed of sound,"298.15 K, x1 = 0.0531",1359 m/s
same,speed of sound,"298.15 K, x1 = 0.1062",1367 m/s
same,speed of sound,"298.15 K, x1 = 0.2935",1392 m/s
same,speed of sound,"298.15 K, x1 = 0.3958",1403.5 m/s
same,speed of sound,"298.15 K, x1 = 0.5036",1413.9 m/s
same,speed of sound,"298.15 K, x1 = 0.5752",1419.9 m/s
same,speed of sound,"298.15 K, x1 = 0.7142",1429.2 m/s
same,speed of sound,"298.15 K, x1 = 0.8751",1436.5 m/s
same,speed of sound,"298.15 K, x1 = 1",1435.8 m/s
same,speed of sound,"303.15 K, x1 = 0.1062",1351.6 m/s
same,speed of sound,"303.15 K, x1 = 0.1999",1365.9 m/s
same,speed of sound,"303.15 K, x1 = 0.2935",1378.7 m/s
same,speed of sound,"303.15 K, x1 = 0.3958",1390.9 m/s
same,speed of sound,"303.15 K, x1 = 0.4452",1396.2 m/s
same,speed of sound,"303.15 K, x1 = 0.5036",1402 m/s
same,speed of sound,"303.15 K, x1 = 0.5752",1408.2 m/s
same,speed of sound,"303.15 K, x1 = 0.6452",1413.5 m/s
same,speed of sound,"303.15 K, x1 = 0.7142",1417.9 m/s
same,speed of sound,"303.15 K, x1 = 0.8049",1422.5 m/s
same,speed of sound,"303.15 K, x1 = 0.8751",1425.1 m/s
same,speed of sound,"303.15 K, x1 = 0.9522",1427 m/s
same,speed of sound,"308.15 K, x1 = 0.0531",1327 m/s
same,speed of sound,"308.15 K, x1 = 0.1062",1336.4 m/s
same,speed of sound,"308.15 K, x1 = 0.1999",1351.6 m/s
same,speed of sound,"308.15 K, x1 = 0.3958",1378.3 m/s
same,speed of sound,"308.15 K, x1 = 0.4452",1383.9 m/s
same,speed of sound,"308.15 K, x1 = 0.5036",1390 m/s
same,speed of sound,"308.15 K, x1 = 0.5752",1396.6 m/s
same,speed of sound,"308.15 K, x1 = 0.6452",1402.1 m/s
same,speed of sound,"308.15 K, x1 = 0.7142",1406.7 m/s
same,speed of sound,"308.15 K, x1 = 0.8049",1411.3 m/s
same,speed of sound,"308.15 K, x1 = 0.8751",1413.9 m/s
same,speed of sound,"308.15 K, x1 = 0.9522",1415.7 m/s
same,speed of sound,"308.15 K, x1 = 1",1413.5 m/s
same,speed of sound,"313.15 K, x1 = 0.0531",1310.8 m/s
same,speed of sound,"313.15 K, x1 = 0.1999",1337.2 m/s
same,speed of sound,"313.15 K, x1 = 0.2935",1351.8 m/s
same,speed of sound,"313.15 K, x1 = 0.3958",1365.7 m/s
same,speed of sound,"313.15 K, x1 = 0.4452",1371.6 m/s
same,speed of sound,"313.15 K, x1 = 0.5036",1378 m/s
same,speed of sound,"313.15 K, x1 = 0.5752",1385 m/s
same,speed of sound,"313.15 K, x1 = 0.6452",1390.8 m/s
same,speed of sound,"313.15 K, x1 = 0.7142",1395.5 m/s
same,speed of sound,"313.15 K, x1 = 0.8751",1402.8 m/s
same,speed of sound,"313.15 K, x1 = 0.9522",1404.5 m/s
same,speed of sound,"313.15 K, x1 = 1",1402.4 m/s
same,speed of sound,"318.15 K, x1 = 0.0531",1294.7 m/s
same,speed of sound,"318.15 K, x1 = 0.1062",1305.4 m/s
same,speed of sound,"318.15 K, x1 = 0.2935",1338.3 m/s
same,speed of sound,"318.15 K, x1 = 0.4452",1359.3 m/s
same,speed of sound,"318.15 K, x1 = 0.5036",1366.1 m/s
same,speed of sound,"318.15 K, x1 = 0.6452",1379.4 m/s
same,speed of sound,"318.15 K, x1 = 0.7142",1384.3 m/s
same,speed of sound,"318.15 K, x1 = 0.8049",1389.2 m/s
same,speed of sound,"318.15 K, x1 = 0.8751",1391.8 m/s
same,speed of sound,"318.15 K, x1 = 1",1391.4 m/s
COCCO + CC[n+]1ccn(C)c1.O=S(=O)([O-])C(F)(F)F,speed of sound,"298.15 K, x2 = 0",1342.3 m/s
same,speed of sound,"308.15 K, x2 = 0",1308.2 m/s
same,speed of sound,"313.15 K, x2 = 0",1290.8 m/s
same,speed of sound,"318.15 K, x2 = 0",1273.6 m/s
